Residues, ends and D or L forms follow the SMILES beside them.
What was measured:
in vitro = settings: C57BL/6J, mouse, mouse tail fibroblast (MTF) cells
Description: Mouse tail fibroblast (MTF) cells were derived from the tails of C57BL/6J mice. Tails were removed, immersed in 70% ethanol and then cut into small sections with a razor blade. The sections were washed three times with PBS and then incubated in a shaker at 37° C. with 0.5 mg/mL collagenase, 100 units/mL penicillin and 100 μg/mL streptomycin to disrupt tissue. Tail sections were then cultured in complete media (Dulbecco's Modified […] Medium with 20% FBS, 1 mM sodium pyruvate, nonessential amino acids and 100 units/mL penicillin and 100 μg/mL streptomycin) until cells were established. Cells were cultured at 37° C., 5% CO2 in complete media as outlined above.
Cells were be plated per well in a microtiter plate the day before transfection in complete media. The siRNA was be labeled, for example with a FAM, Alexa488, Alexa647 or Cy-5 conjugate. The cationic polymer peptide and siRNA were mixed in the microtiter plate complex with cells previously with OptiMEM. 7-AAD was added to each transfection to measure cell viability. Cells were transfected for three hours at 37° C., 5% CO2. The transfection mixture was removed and the cells were washed with TE buffer for about 10 minutes at 37° C., 5% CO2. Transfected cells were transferred to a V bottom plate and centrifuged. The TE buffer was removed and the transfected cells were resuspended in fluorescence activated cell sorting (FACS) buffer.
A non-transfection, siRNA alone, control was also performed. The peptide PN183 served herein as a positive cell-uptake control.
Cell-uptake is expressed as a percentage of the total cells with intracellular labeled siRNA. Cell Viability is also expressed as a percentage where 100% represents 100% viability. The MFI value is a relative value with a higher MFI value indicating a greater amount of labeled siRNA entered the cell. Within Table 3, “ND” means no data.

[1] = test system: Mouse tail fibroblast (MTF) cells; experiment: siRNA cell-uptake and MFI measured by FACS after peptide-mediated transfection of labeled siRNA; assay type: cell-based; settings: for % Cell-Uptake: % of total cells with intracellular labeled siRNA; for MFI: relative value
Description: SiRNA cell uptake was measured by FACS.
For the instant example, cell-uptake, mean fluorescent intensity (MFI) and cell viability was measured for each peptide. siRNA cell-uptake was measured by the presence of intracellular labeled siRNA. The cell-uptake assay determined the percentage of cells that contain the labeled siRNA. Mean Fluorescence Intensity (MFI) was used to determine the relative mean quantity of labeled siRNA that entered the cells.
A non-transfection, siRNA alone, control was also performed.
Within Table 3, “ND” means no data.

[2] = peptide concentration 1 μM, 200 nM labeled siRNA
[3] = peptide concentration 1 μM, 200 nM labeled siRNA, higher = more labeled siRNA entered the cell
[4] = peptide concentration 10 μM, 200 nM labeled siRNA
[5] = peptide concentration 10 μM, 200 nM labeled siRNA, higher = more labeled siRNA entered the cell
[6] = peptide concentration 100 μM, 200 nM labeled siRNA
[7] = peptide concentration 100 μM, 200 nM labeled siRNA, higher = more labeled siRNA entered the cell

Row | Molecule | viability at 3 h, 1 µM (in vitro) [%] | viability at 3 h, 10 µM (in vitro) [%] | viability at 3 h, 100 µM (in vitro) [%] | % Cell-Uptake [1, 2] [%] | MFI [1, 3] | % Cell-Uptake [1, 4] [%] | MFI [1, 5] | % Cell-Uptake [1, 6] [%] | MFI [1, 7] | percent cell-uptake ([1]; concentration not given) | MFI ([1]; concentration not given) | intracellular delivery of siRNA (verbal conclusion from cell-uptake and cell viability) ([1]; conclusion drawn from Table 3)
1 | CC[C@H](C)[C@H](NC(=O)[C@H](CCCCN)NC(=O)[C@@H](NC(=O)[C@H](CCC(N)=O)NC(=O)[C@H](CCCNC(=N)N)NC(=O)[C@H](CS)NC(=O)[C@@H](NC(=O)[C@H](CO)NC(=O)[C@H](CCCNC(=N)N)NC(=O)[C@H](Cc1c[nH]cn1)NC(=O)[C@H](Cc1c[nH]cn1)NC(=O)[C@H](Cc1c[nH]cn1)NC(=O)[C@H](Cc1c[nH]cn1)NC(=O)[C@H](Cc1c[nH]cn1)NC(=O)[C@@H](N)Cc1c[nH]cn1)C(C)C)[C@@H](C)CC)C(=O)N[C@@H](CS)C(=O)N[C@@H](CCCNC(=N)N)C(=O)N[C@@H](CCCNC(=N)N)C(=O)N[C@@H](CCCNC(=N)N)C(=O)NCC(=O)NCC(=O)N[C@@H](CS)C(=O)N[C@@H](Cc1ccc(O)cc1)C(=O)N[C@@H](Cc1ccc(O)cc1)C(=O)N[C@@H](CCCCN)C(=O)N[C@@H](CS)C(=O)N[C@H](C(=O)N[C@@H](CC(N)=O)C(=O)N[C@@H](CCCNC(=N)N)C(=O)N1CCC[C@H]1C(=O)N[C@@H](Cc1ccc(O)cc1)C(N)=O)[C@@H](C)O [PN951] (H-HHHHHHRSVCRQIKICRRRGGCYYKCTNRPY-NH2) | 97.2 | 99.1 | 97.9 | 31.8 | 4.02 | 80.1 | 14.3 | 45.7 | 9.19 |  |  | 
2 | H-KETWWETWWTEWSQPGRKKRRQRRRPPQ-NH2 [PN183, reference compound] | 96 | 96.8 | 76.7 | 9.3 | 3.61 | 47.4 | 3.77 | 58.9 | 10.5 | approximately 59% | ~11 | 
3 | H-KHKHKHKHKHKHKHKHKHKH-NH2 [PN938, NH2-(Lys-His)10-amide] | 97.9 | 98.6 | 98.8 | 0.6 |  | 0.5 |  | 5.9 |  |  |  | 
4 | H-KHKHKHKHKHKHKHKHKHKHKHKHKHKHKH-NH2 [PN935, NH2-(Lys-His)15-amide] | 98.1 | 97.3 | 96.6 | 20.3 | 1.94 | 36.1 | 2.2 | 24.6 | 2.16 |  |  | effective intracellular delivery of siRNA without negatively impacting cell viability
5 | H-KKKKKKKKKK-NH2 [PN932, NH2-(Lys)10-amide] | 97.3 | 96.7 | 98.4 | 0.4 |  | 1 |  | 1 |  |  |  | 

— patent US20070275923A1, “CATIONIC PEPTIDES FOR siRNA [sequence] [sequence]” (NASTECH PHARMACEUTICAL COMPANY INC., priority 2006, published 2007)
